Results reported in ChEMBL document CHEMBL5665443, “Enzyme Inhibitor Single Concentration assay results for EUbOPEN Chemogenomics Library” (2024).

Experiments:
[1] = molecular target: Methyl-CpG-binding domain protein 4 (Homo sapiens) (UniProt O95243); conditions: Hit No;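 further: MBD4 activity read as fluorescence at 594 nm from cleavage and release of a quenched duplex DNA oligonucleotide, with APE1 coupled to incise the strand and raise turnover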
[2] = molecular target: Endonuclease 8-like 1 (Homo sapiens) (UniProt Q96FI4); conditions: Hit No;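 further: fluorescence at 594 nm from quenched duplex DNA oligonucleotides released by NEIL1 cleavage and strand separation, reported as reduction of this enzyme activity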
Chain of Endonuclease 8-like 1 (Homo sapiens) (Q96FI4 whole entry): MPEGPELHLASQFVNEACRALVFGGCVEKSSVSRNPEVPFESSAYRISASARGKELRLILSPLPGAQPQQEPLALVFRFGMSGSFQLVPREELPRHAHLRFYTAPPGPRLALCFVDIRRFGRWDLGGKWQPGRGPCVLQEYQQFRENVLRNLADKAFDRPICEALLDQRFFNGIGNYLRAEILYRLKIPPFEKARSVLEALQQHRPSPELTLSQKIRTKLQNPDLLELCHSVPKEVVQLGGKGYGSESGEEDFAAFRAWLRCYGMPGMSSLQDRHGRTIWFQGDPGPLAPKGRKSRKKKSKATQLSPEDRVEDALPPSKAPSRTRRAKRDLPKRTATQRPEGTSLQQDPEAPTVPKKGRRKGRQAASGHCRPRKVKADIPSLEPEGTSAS

[3] = molecular target: T1, Endonuclease III-like protein 1 (Homo sapiens) (UniProt P78549); conditions: Hit No;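 further: enzyme assay tracking NTHL1 cutting and release of a quenched double-stranded DNA oligo substrate, read as fluorescence at 594 nm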
T1 sequence (whole entry): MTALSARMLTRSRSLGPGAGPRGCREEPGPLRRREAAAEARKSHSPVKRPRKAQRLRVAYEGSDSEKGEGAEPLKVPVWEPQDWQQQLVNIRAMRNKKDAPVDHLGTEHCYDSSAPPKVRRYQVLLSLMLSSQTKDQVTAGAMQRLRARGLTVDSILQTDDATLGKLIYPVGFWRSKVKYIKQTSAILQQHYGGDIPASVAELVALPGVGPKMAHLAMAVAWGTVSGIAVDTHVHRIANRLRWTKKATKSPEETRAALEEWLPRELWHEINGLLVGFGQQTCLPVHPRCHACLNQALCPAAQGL

[4] = molecular target: T2, Single-strand selective monofunctional uracil DNA glycosylase (Homo sapiens) (UniProt Q53HV7); conditions: Hit No;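 further: enzymatic SMUG1 assay coupled with APE1, reading fluorescence at 594 nm released when a quenched double-stranded DNA oligonucleotide substrate is cleaved and separated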
T2 sequence (whole entry): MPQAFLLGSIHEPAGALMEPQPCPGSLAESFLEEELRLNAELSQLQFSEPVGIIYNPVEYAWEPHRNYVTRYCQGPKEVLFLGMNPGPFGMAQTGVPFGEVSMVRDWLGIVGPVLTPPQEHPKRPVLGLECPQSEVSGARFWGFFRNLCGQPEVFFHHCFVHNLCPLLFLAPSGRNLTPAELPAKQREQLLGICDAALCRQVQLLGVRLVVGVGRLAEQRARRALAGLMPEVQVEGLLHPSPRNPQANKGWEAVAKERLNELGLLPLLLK

[5] = molecular target: G/T mismatch-specific thymine DNA glycosylase (Homo sapiens) (UniProt Q13569); conditions: Hit No;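 further: human TDG cleavage of quenched duplex DNA oligonucleotides coupled to APE1, strand release read as fluorescence at 594 nm, inhibition of TDG activity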
Chain of G/T mismatch-specific thymine DNA glycosylase (Homo sapiens) (Q13569 whole entry): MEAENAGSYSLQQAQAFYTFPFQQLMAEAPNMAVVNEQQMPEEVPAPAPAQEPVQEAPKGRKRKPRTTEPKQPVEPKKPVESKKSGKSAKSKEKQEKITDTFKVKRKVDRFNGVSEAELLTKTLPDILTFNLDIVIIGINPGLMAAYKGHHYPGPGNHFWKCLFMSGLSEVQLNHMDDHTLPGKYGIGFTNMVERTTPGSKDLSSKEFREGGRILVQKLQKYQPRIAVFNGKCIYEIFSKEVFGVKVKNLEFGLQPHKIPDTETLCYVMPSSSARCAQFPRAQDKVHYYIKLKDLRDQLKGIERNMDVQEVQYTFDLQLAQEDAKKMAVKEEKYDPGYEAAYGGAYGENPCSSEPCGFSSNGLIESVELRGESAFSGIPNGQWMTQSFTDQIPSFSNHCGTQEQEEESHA

[6] = molecular target: Uracil-DNA glycosylase (Homo sapiens) (UniProt P13051); conditions: Hit No;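 further: UNG excision on a quenched double-stranded DNA oligo probe, with APE1 added for strand incision and turnover, read as fluorescence at 594 nm as strands separate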
Chain of Uracil-DNA glycosylase (Homo sapiens) (P13051 whole entry): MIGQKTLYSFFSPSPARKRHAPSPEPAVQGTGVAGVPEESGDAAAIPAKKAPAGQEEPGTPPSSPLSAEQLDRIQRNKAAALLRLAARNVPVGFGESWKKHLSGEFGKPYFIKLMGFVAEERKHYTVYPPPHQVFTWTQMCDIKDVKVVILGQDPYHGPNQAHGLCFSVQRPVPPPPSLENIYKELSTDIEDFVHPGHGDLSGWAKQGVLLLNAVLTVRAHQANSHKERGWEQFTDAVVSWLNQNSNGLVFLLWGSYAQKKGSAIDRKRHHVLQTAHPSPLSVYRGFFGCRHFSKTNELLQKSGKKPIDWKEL

[7] = molecular target: N-glycosylase/DNA lyase (Homo sapiens) (UniProt O15527); conditions: Compound Concentration 10.0 uM, Hit No;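 further: OGG1 cleavage of a quenched duplex DNA oligonucleotide, coupled to APE1 for strand incision, read as fluorescence at 594 nm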
Chain of N-glycosylase/DNA lyase (Homo sapiens) (O15527 whole entry): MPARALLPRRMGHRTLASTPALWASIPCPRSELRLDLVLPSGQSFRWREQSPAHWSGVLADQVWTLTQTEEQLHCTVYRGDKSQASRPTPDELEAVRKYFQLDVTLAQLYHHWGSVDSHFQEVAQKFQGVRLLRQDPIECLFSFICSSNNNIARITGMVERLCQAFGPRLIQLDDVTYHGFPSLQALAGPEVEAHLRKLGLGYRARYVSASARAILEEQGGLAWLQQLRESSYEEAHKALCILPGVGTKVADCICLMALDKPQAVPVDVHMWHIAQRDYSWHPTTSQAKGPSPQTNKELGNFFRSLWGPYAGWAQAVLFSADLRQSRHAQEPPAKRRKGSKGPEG
Description: Inhibition of OGG1 by quantifying inhibition of OGG1-mediated cleavage and dissociation of quenched duplex DNA oligonucleotides, measured as fluorescence at 594 nm. To generate a functional strand incision and increase turn-over this assay is coupled to APE1.

[8] = molecular target: T3, Endonuclease 8-like 2 (Homo sapiens) (UniProt Q969S2); conditions: Compound Concentration 10.0 uM, Hit No;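 further: fluorescence at 594 nm reports NEIL2 cutting and release of a quenched double-stranded DNA oligo substrate, reduced signal read as inhibition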
T3 sequence (whole entry): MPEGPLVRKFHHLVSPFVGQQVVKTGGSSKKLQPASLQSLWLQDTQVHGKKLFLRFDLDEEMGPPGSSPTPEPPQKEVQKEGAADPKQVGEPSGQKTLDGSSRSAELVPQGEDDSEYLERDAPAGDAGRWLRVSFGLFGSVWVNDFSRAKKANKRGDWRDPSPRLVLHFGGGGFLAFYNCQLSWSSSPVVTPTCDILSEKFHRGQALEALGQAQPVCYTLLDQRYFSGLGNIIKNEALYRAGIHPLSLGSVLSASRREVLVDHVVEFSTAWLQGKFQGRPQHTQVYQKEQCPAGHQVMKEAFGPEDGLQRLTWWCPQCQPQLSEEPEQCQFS
Description: Inhibition of NEIL2 by quantifying inhibition of NEIL2-mediated cleavage and dissociation of quenched duplex DNA oligonucleotides, measured as fluorescence at 594 nm.

Chain of Methyl-CpG-binding domain protein 4 (Homo sapiens) (O95243 whole entry, the tested form may be a part): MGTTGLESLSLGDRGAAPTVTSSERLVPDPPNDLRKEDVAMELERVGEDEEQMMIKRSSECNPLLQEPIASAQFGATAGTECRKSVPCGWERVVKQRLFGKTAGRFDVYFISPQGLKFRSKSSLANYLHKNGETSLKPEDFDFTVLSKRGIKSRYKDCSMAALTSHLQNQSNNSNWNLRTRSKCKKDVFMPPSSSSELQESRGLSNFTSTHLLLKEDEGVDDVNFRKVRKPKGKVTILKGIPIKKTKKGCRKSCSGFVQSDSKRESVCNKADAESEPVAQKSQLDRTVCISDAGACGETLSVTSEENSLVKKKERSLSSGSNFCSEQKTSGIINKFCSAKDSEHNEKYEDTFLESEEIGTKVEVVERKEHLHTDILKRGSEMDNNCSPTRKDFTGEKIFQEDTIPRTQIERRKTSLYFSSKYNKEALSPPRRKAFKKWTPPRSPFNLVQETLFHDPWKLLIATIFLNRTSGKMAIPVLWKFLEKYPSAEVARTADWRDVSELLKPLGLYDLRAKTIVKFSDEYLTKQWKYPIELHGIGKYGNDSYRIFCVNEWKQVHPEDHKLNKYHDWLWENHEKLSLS

Row | SMILES | inhibition ([1]; Compound Concentration 10.0 uM) [%] | inhibition ([2]; Compound Concentration 10.0 uM) [%] | inhibition ([3]; Compound Concentration 10.0 uM) [%] | inhibition ([4]; Compound Concentration 10.0 uM) [%] | inhibition ([5]; Compound Concentration 10.0 uM) [%] | inhibition ([6]; Compound Concentration 10.0 uM) [%] | inhibition [7] [%] | inhibition [8] [%] | inhibition ([1]; Compound Concentration 1.0 uM) [%] | inhibition ([2]; Compound Concentration 1.0 uM) [%] | inhibition ([3]; Compound Concentration 1.0 uM) [%] | inhibition ([4]; Compound Concentration 1.0 uM) [%] | inhibition ([5]; Compound Concentration 1.0 uM) [%] | inhibition ([6]; Compound Concentration 1.0 uM) [%]
1 | COc1ccc([C@@H]2Sc3ccccc3N(CCN(C)C)C(=O)[C@@H]2OC(C)=O)cc1 | -5.04 | 3.71 | 30.3 | 0.325 | -1.73 | -4.36 |  |  |  |  |  |  |  | 
2 | O=C(O)[C@@H]1[C@@H](Cn2nnc3ccccc3c2=O)CC[C@H]1C(=O)c1ccc(OCCC2CCOCC2)cc1 | 57.8 |  | -5.23 | 18.6 | 49.2 | 2.54 | 7.75 |  |  |  |  |  |  | 
3 | CC(C)(C)OC(=O)N1CCCC1CNC1CCC(c2cc(F)ccc2F)(S(=O)(=O)c2ccc(Cl)cc2)CC1 (stereo unspecified) | 45.5 |  | -1.29 | 19.7 | 17.3 | 1.86 | 4.85 |  |  |  |  |  |  | 
4 | CO[C@@H](C)c1c(Nc2ccc([C@@H](N(C)C(=O)C3CCS(=O)(=O)CC3)C(F)(F)F)cc2)cnc2cc(Cl)nn12 | 93.9 | -6.35 | -9.83 | 13.4 | 42.7 | 0.795 |  | 0.0213 |  |  |  |  |  | 
5 | N#CC1(c2ccccn2)CCN(Cc2cc(C(=O)O)c(=O)n3ccccc23)CC1 | 93 | -0.139 | -9.18 |  | 45.8 | 1.66 | -3.75 | 0.531 |  |  |  |  |  | 
6 | CN(C)C(=O)c1sc2nc(N3CCC(S(C)(=O)=O)CC3)cc(C(F)(F)F)c2c1N | 1.76 | -3.24 | 2.05 | -2.07 | -5.21 |  | -1.24 |  |  |  |  |  |  | 
7 | CCOc1cc(N2CCC(O)CC2)ccc1Nc1ncc2c(n1)N(C1CCCC1)CCC(=O)N2C | -5.19 | -5.28 | -6.19 | 12.4 | 36.7 | -0.0214 |  |  |  |  |  |  |  | 
8 | CNC[C@H](O)c1cccc(O)c1 | -3.74 | -4.8 | -9.8 | -2.99 | -5.83 |  | -3.42 | 7.25 |  |  |  |  |  | 
9 | CC1=C(C(=O)Nc2cc3cn[nH]c3cc2F)C(c2ccc(C(F)(F)F)cc2)CC(=O)N1 (stereo unspecified) | 18 | 4.1 | -2.7 | 22.4 | 34.3 | 7.25 |  | 3.2 |  |  |  |  |  | 
10 | COc1ccnc(N2CCC3(CCCN(Cc4c[nH]c5ccccc45)C3=O)CC2)n1 | -0.547 | 9.14 | 6.32 | 15.5 | 4.73 |  | -2.11 | -0.983 |  |  |  |  |  | 
11 | Cn1ncnc1COc1nn2c(-c3c(F)cccc3F)nnc2cc1C1CCC1 | -5.71 | 7.71 | 22.9 | 1.23 | 15.4 | -7.24 |  | -3.41 |  |  |  |  |  | 
12 | Cn1cc(-c2ccc3occ(-c4cccc(-c5ccncc5)c4)c3n2)cn1 | -1.5 | -1.18 | -8.98 | 13.1 | 42.6 | -1.77 |  | -5.69 |  |  |  |  |  | 
13 | C[C@H](NC(=O)c1cnc2n1[C@](C)(Cc1ccc(C#N)cc1)C(=O)N2c1cc(Cl)c(F)c(Cl)c1)C(=O)NC1(c2ccccn2)CC1 | 60.9 | 5.16 | -4.57 | 22.8 | 52.5 | 7.8 |  | -4.83 |  |  |  |  |  | 
14 | CC(C)c1c(NC(=O)Nc2ccc(Cl)cc2)c(=O)n(-c2ccccc2)n1C | 31.2 | 4.99 | 12.9 | -6.14 | -4.69 |  | -7 | -6.97 |  |  |  |  |  | 
15 | CCC1(C2=NCCN2)Cc2ccccc2O1 (stereo unspecified) | 3.23 | -9.99 | 1.19 |  | 2.85 | -0.713 | -0.183 | -5.22 |  |  |  |  |  | 
16 | COc1cc(C(=O)O)ncc1C#Cc1ccccc1NS(=O)(=O)c1cccc2c(N(C)C)ccnc12 | 66.6 | -0.29 | -8.52 | 6.29 | 46.3 | 2.52 |  | 6.91 |  |  |  |  |  | 
17 | Cc1cc2c(-c3ccco3)cnc(N[C@@H]3CCN(C)C[C@H]3C(=O)NC3CCCCC3)c2[nH]c1=O | 58.5 |  | -9.18 |  | 33.3 | -3.36 |  |  |  |  |  |  |  | 
18 | CCOc1cn(-c2ccc(F)cc2C)nc1C(=O)Nc1ccc(Oc2ccnc3cc(OC)c(OC)cc23)c(F)c1 |  |  |  |  |  |  |  |  | 31.6 | 0.138 | -2 | 21.7 | 46.5 | 1.39
19 | CN(C(=O)Cc1ccc(Cl)c(Cl)c1)C(CN1CCCC1)c1cccc(OCC(=O)O)c1 (stereo unspecified) |  | -0.5 | 13.7 | -2.65 | -1.52 | -7.78 | -6.71 | -9.22 |  |  |  |  |  | 
20 | COc1ncc(F)cc1CNc1ccc(Cc2c[nH]c3ncc(C)cc23)c(F)n1 |  | 1.33 | -7.58 | 18.6 | 37.9 | 6.92 | 5.69 | 2.39 |  |  |  |  |  | 
21 | C[C@@H]1CN(c2nccc(Nc3ccc4c(c3)n(CCC(C)(C)O)c(=O)n4C)n2)C[C@H](C)C1(F)F | 56.2 | -3.77 | -0.63 | 7.55 | 98.6 | 5.07 |  | -8.14 |  |  |  |  |  | 
22 | C[C@H]1[C@H]2CC[C@H]3[C@@H]4CC=C5C[C@@H](N(C)C)CC[C@]5(C)[C@H]4CC[C@]23CN1C |  | -0.649 | 7.05 | 4.86 | 5.99 | -8.6 | -2.15 | -7.72 |  |  |  |  |  | 
23 | COc1ccc(CC[C@@H](OC(=O)[C@@H]2CCCCN2C(=O)[C@H](c2cc(OC)c(OC)c(OC)c2)C2CCCCC2)c2cccc(OCCN3CCOCC3)c2)cc1OC | 43.3 |  | -7.86 | 4.21 | 31.2 | 0.833 | -4.59 |  |  |  |  |  |  | 
